Experimental data taken from patent US20120022045A1, “BRIDGED COMPOUNDS AS HIV INTEGRASE INHIBITORS” (priority 2009, published 2012).
pIC50: −log10 of the molar value. Read-outs that look alike come from different tables or passages of the source.

What was measured:
[1] = test system: HIV-1 integrase mutant virus Y143R; assay: Single cycle infectivity assay in HeLa P4-2 cells, integrase mutant Y143R virus; assay type: cell-based; conditions: fold shift in IC50 versus wild type IIIB
Procedure, shortened: (§1)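 HeLa P4-2 cells used in a single-cycle acute HIV-1 infection assay. Wild-type IIIB or integrase mutant viruses made by site-directed mutagenesis of proviral plasmids and produced by transfection of 293T cells.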

[2] = test system: HIV-1 integrase mutant virus G140S/Q148H; assay: Single cycle infectivity assay in HeLa P4-2 cells, integrase mutant G140S/Q148H virus; assay type: cell-based; conditions: fold shift in IC50 versus wild type IIIB
Procedure, shortened: as §1

[3] = test system: HIV-1 integrase mutant virus N155H; assay: Single cycle infectivity assay in HeLa P4-2 cells, integrase mutant N155H virus; assay type: cell-based; conditions: fold shift in IC50 versus wild type IIIB
Procedure, shortened: as §1

HIV-1 integrase = target: T1, HIV-1 integrase (Human immunodeficiency virus type 1 group M subtype B, UniProt P04585); assay: HIV integrase assay: strand transfer catalyzed by recombinant integrase; assay type: biochemical; conditions: strand transfer activity
T1 construct: strand transfer activity of HIV-1 integrase
Method: Assays for the strand transfer activity of HIV-1 integrase were conducted in accordance with WO 02/30930 for recombinant integrase.
Further description on conducting the assay using preassembled complexes is found in Wolfe, A. L. et al., J. Virol. 1996, 70: 1424-1432, Hazuda et al., J. Virol. 1997, 71: 7005-7011; Hazuda et al., Drug Design and Discovery 1997, 15: 17-24; and Hazuda et al., Science 2000, 287: 646-650.

HIV-1 wild type IIIB = assay: Single cycle infectivity assay in HeLa P4-2 cells, wild type virus; assay type: cell-based
Procedure, shortened: as §1

HIV-1 = assay: Inhibition of acute HIV-1 infection of T-lymphoid cells (spread assay); assay type: cell-based; conditions: 10% FBS, read-out: IC95 (nM) in the presence of 10% FBS
Method: Assays for the inhibition of acute HIV-1 infection of T-lymphoid cells were conducted in accordance with Vacca, J. P. et al., Proc. Natl. Acad. Sci. USA 1994, 91: 4096.

[4] = test system: HIV-1 integrase mutant virus Q148R; assay: Single cycle infectivity assay in HeLa P4-2 cells, integrase mutant Q148R virus; assay type: cell-based; conditions: fold shift in IC50 versus wild type IIIB
Procedure, shortened: as §1

[5] = Human immunodeficiency virus 1, IIIB, HeLaP4-2, wild type IIIB
[6] = Human immunodeficiency virus 1, T-lymphoid

| Compound | Y143R (shift) [1] [fold] | G140S/Q148H (shift) [2] [fold] | N155H (shift) [3] [fold] | pIC50 (HIV-1 integrase) | pIC50 (HIV-1 wild type IIIB; [5]) | IC95 (HIV-1; [6]) [nM] | Q148R (shift) [4] [fold] | pIC50 (HIV-1 wild type IIIB; wild type IIIB) | IC95 (HIV-1) [nM] |
| --- | --- | --- | --- | --- | --- | --- | --- | --- | --- |
| CN1CCN(C(=O)C(=O)N(C)C23CCC(CC2)Cn2c3nc(C(=O)NCc3ccc(F)cc3)c(O)c2=O)CC1 [Example 4] | 1 | 4 | 4 | 7.85 | 7.48 | 39 | 3 |  |  |
| Cc1cc(CNC(=O)c2nc3n(c(=O)c2O)CC2CCC3(N(C)C(=O)C(=O)N(C)C)CO2)ccc1F (single isomer, unassigned) [Example 11B] | 1 | 14 | 5 | 7.85 |  |  | 2 | 6.95 | 7.8 |
| CCN(C(=O)C(=O)N(C)C)C12CCC(Cn3c1nc(C(=O)NCc1ccc(F)cc1)c(O)c3=O)OC2 (single isomer, unassigned) [Example 12B, N-Ethyl-N-(4-{[(4-fluorobenzyl)amino]carbonyl}-5-hydroxy-6-oxo-10-oxa-3,7-diazatricyclo[7.2.2.0^2,7]trideca-2,4-dien-1-yl)-N′,N′-dimethylethanediamide] | 7 | 240 | 56 | 7.74 |  |  | 32 | 8.15 | 19 |
| CN(C)C(=O)C(=O)N(C)C12CCC(CC1)Cn1c2nc(C(=O)NCc2ccc(F)cc2)c(O)c1=O [Example 1, N-(4-{[(4-fluorobenzyl)amino]carbonyl}-5-hydroxy-6-oxo-3,7-diazatricyclo[7.2.2.0^2,7]trideca-2,4-dien-1-yl)-N′,N′,N″-trimethylethanediamide] | 2 | 15 | 3 | 7.89 | 8.14 | 6.2 | 2 |  |  |
| CN(C)C(=O)C(=O)N(C)C12CCC(Cn3c1nc(C(=O)NCc1ccc(F)cc1)c(O)c3=O)OC2 (single isomer, unassigned) [Example 10A, N-(4-{[(4-fluorobenzyl)amino]carbonyl}-5-hydroxy-6-oxo-10-oxa-3,7-diazatricyclo[7.2.2.0^2,7]trideca-2,4-dien-1-yl)-N′,N′N′-trimethylethanediamide] | 1 | 26 | 5 | 8.30 |  |  | 4 | 6.66 | 9.0 |
| CC1C2CCC(N(C)C(=O)C(=O)N(C)C)(CC2)c2nc(C(=O)NCc3ccc(F)cc3)c(O)c(=O)n21 (single isomer, unassigned) [Example 13A, N-(4-{[(4-fluorobenzyl)amino]carbonyl}-5-hydroxy-8-methyl-6-oxo-3,7-diazatricyclo[7.2.2.0^2,7]trideca-2,4-dien-1-yl)-N′,N′,N″-trimethylethanediamide] | 2 | 2 | 2 | 7.89 | 8.15 |  | 1 |  | 8.6 |
| Cc1cc(CNC(=O)c2nc3n(c(=O)c2O)CC2CCC3(N(C)C(=O)C(=O)N(C)C)CO2)ccc1F (single isomer, unassigned) [Example 11A] | 2 | >79 | 10 | 7.43 |  |  | 8 | 7.68 | 17 |
| CCN(C(=O)C(=O)N(C)C)C12CCC(Cn3c1nc(C(=O)NCc1ccc(F)cc1)c(O)c3=O)OC2 (single isomer, unassigned) [Example 12A, N-Ethyl-N-(4-{[(4-fluorobenzyl)amino]carbonyl}-5-hydroxy-6-oxo-10-oxa-3,7-diazatricyclo[7.2.2.0^2,7]trideca-2,4-dien-1-yl)-N′,N′-dimethylethanediamide] | 2 | 112 | 6 | 7.96 |  | 11 | 7 | 7.64 |  |
| N-5-{[(4-fluorolbenzyl)amino]carbonyl}-4-hydroxy-3-oxo-2,6-diazatricyclo[6.3.2.0^2,7]trideca-4,6-dien-8-yl)-N,N′,N′-trimethylethanediamide [Example 24B] | 2 | 6 | 3 | 7.62 |  |  | 1 | 8.15 | 7.4 |
| CC1C2CCC(N(C)C(=O)C(=O)N(C)C)(CC2)c2nc(C(=O)NCc3ccc(F)cc3)c(O)c(=O)n21 (single isomer, unassigned) [Example 13B, N-(4-{[(4-fluorobenzyl)amino]carbonyl}-5-hydroxy-8-methyl-6-oxo-3,7-diazatricyclo[7.2.2.0^2,7]trideca-2,4-dien-1-yl)-N′,N′,N″-trimethylethanediamide] | 7 | >209 | 30 | 7.89 |  |  | 57 | 8.10 | 20 |
| CN(C(=O)C(=O)N1CCOCC1)C12CCC(CC1)Cn1c2nc(C(=O)NCc2ccc(F)cc2)c(O)c1=O [Example 3, N-(4-fluorobenzyl)-5-hydroxy-1-{methyl[morpholin-4-yl(oxo)acetyl]amino}-6-oxo-3,7-diazatricyclo[7.2.2.0^2,7]trideca-2,4-diene-4-carboxamide] | 1 | 9 | 2 | 7.49 | 7.51 | 11 | 2 |  |  |
| Cc1cc(CNC(=O)c2nc3n(c(=O)c2O)CC2CCC3(N(C)C(=O)C(=O)N(C)C)CC2)ccc1F [Example 2, N-(4-{[(4-fluoro-3-methylbenzyl)amino]carbonyl}-5-hydroxy-6-oxo-3,7-diazatricyclo[7.2.2.0^2,7]trideca-2,4-dien-1-yl)-N,N′,N″-trimethylethanediamide] | 1 | 5 | 2 | 7.82 | 8.40 | 7.2 | 2 |  |  |
| CN(C)C(=O)C(=O)N(C)C12CCC(Cn3c1nc(C(=O)NCc1ccc(F)cc1)c(O)c3=O)OC2 (single isomer, unassigned) [Example 10B, N-(4-{[(4-Fluorobenzyl)amino]carbonyl}-5-hydroxy-6-oxo-10-oxa-3,7-diazatricyclo[7.2.2.0^2,7]trideca-2,4-dien-1-yl)-N′,N′,N′-trimethylethanediamide] | 6 | 12 | 18 | 7.85 |  |  | 22 | 7.52 | 15 |
| CN(C)C(=O)C(=O)NC12CCC(CC1)Cn1c2nc(C(=O)NCc2ccc(F)cc2)c(O)c1=O [Example 5, N′-{2-[(4-fluorobenzyl)carbamoyl]-3-hydroxy-4-oxo-6,7,8,9-tetrahydro-7,10-ethanopyrimido[1,2-a]azepin-10(4H)-yl}-N,N-dimethylethanediamide] | 1 | 9 | 2 | 7.48 | 8.17 | < 3.9 | 1 |  |  |
| O=C(NC12CCC(CC1)Cn1c2nc(C(=O)NCc2ccc(F)cc2)c(O)c1=O)C(=O)N1CCOCC1 [Example 6, N-(4-Fluorobenzyl)-3-hydroxy-10-{[morpholin-4-yl(oxo)acetyl]amino}-4-oxo-4,6,7,8,9,10-hexahydro-7,10-ethanopyrimido[1,2-a]azepine-2-carboxamide] | 1 | 5 | 2 | 7.43 | 8.05 | 5.3 | 2 |  |  |
